Like-named read-outs stand apart in the source and are kept apart here.
What was measured:
[1] = target: T1, NDM-1 (Klebsiella pneumoniae, UniProt C7C422); test: biochemical
[2] = target: T2, VIM-1 (Pseudomonas aeruginosa, UniProt A0A0F7KYQ8); test: biochemical; details: cleavage of nitrocefin (200 uM) by VIM-1 supernatant
T2 construct: made in house; host or cells: ECM6711 strain carrying pUCP24-VIM-1 plasmid; culture supernatant used unpurified

[3] = target: KPC-2 (Klebsiella pneumoniae, UniProt Q9F663); test: Inhibition of purified class A carbapenemase KPC-2 (Ki, carbapenem substrates); format: biochemical
KPC-2, sequence (Q9F663 25-293 limits assumed): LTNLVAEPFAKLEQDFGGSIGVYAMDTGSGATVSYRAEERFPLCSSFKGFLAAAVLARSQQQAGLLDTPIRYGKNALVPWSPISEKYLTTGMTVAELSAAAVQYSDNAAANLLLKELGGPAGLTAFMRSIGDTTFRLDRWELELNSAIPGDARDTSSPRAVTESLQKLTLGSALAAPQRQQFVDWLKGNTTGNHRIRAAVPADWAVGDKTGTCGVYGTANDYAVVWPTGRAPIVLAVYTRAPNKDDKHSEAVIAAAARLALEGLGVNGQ

[4] = target: OXA-48 (Klebsiella pneumoniae, UniProt Q6XEC0); test: Inhibition of purified class D carbapenemase OXA-48 (Ki, carbapenem substrates); format: biochemical
OXA-48, sequence (Q6XEC0 23-265, looked up): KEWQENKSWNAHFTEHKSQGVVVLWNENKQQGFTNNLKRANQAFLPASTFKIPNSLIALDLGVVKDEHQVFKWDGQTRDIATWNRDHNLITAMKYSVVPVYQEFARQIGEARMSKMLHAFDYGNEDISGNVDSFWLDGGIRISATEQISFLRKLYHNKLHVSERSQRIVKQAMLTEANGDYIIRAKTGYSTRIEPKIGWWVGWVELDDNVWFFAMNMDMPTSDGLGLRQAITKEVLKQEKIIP

[5] = target: T1, NDM-1; test: Inhibition of purified class B carbapenemase NDM-1 (Ki, imipenem substrate); format: biochemical; details: NDM-1, substrate imipenem; read-out: Ki NDM-1, Imipenem
[6] = target: purified class A, C and D enzymes (Enterobacter cloacae, UniProt P05364); format: biochemical; details: purified P99/AmpC of ECL; nitrocefin reporter substrate
purified class A, C and D enzymes (Enterobacter cloacae, UniProt P05364), sequence (P05364 21-381): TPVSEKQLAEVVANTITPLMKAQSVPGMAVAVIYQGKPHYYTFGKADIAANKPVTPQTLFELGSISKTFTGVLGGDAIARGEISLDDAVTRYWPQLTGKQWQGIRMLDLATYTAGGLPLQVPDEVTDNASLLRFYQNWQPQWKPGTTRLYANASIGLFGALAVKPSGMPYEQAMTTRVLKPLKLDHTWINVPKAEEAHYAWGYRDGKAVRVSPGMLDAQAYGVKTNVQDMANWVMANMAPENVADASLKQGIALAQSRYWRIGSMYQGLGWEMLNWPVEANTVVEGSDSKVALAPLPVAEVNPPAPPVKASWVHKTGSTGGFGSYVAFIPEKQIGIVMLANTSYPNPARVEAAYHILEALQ

[7] = target: purified class A, C and D enzymes (Escherichia coli, UniProt Q9L5C7); format: biochemical; details: purified CTX-M-14; nitrocefin reporter substrate
purified class A, C and D enzymes (Escherichia coli, UniProt Q9L5C7), sequence (Q9L5C7 entry or part of it): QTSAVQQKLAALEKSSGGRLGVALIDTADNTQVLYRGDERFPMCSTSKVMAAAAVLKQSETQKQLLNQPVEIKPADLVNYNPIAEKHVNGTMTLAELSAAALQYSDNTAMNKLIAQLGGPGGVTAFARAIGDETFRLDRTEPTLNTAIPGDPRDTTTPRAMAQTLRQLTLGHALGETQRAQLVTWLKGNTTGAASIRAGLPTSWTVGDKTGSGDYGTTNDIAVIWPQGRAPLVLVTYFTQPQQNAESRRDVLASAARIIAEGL

[8] = target: T3, purified class A, C and D enzymes (UniProt P0AD64, L31Q/G234S/E235K, species not given); format: biochemical; details: read-out: Ki (SHV-12, NCF); purified SHV-12; nitrocefin reporter substrate
T3 construct: Ki (SHV-12, NCF); other: purified SHV-12; nitrocefin reporter substrate
T3 sequence (P0AD64 1-286 L31Q/G234S/E235K): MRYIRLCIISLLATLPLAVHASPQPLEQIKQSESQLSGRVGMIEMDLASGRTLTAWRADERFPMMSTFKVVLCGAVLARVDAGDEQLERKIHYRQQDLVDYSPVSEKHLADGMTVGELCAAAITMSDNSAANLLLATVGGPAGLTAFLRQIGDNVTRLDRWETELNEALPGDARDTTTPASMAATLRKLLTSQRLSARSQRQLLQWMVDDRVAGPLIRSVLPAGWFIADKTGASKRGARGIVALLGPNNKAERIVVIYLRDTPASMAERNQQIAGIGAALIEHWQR

[9] = target: T4, purified class A, C and D enzymes (UniProt Q6XEC0); format: biochemical; details: read-out: Ki (OXA-48, NCF); purified OXA-48; nitrocefin reporter substrate
T4 construct: rows headed: Ki (OXA-48, NCF); other: purified OXA-48; nitrocefin reporter substrate

[10] = target: T5, purified class A, C and D enzymes (UniProt Q9F663); format: biochemical; details: read-out: Ki (KPC-2, NCF); purified KPC-2; nitrocefin reporter substrate
T5 construct: rows headed: Ki (KPC-2, NCF); other: purified KPC-2; nitrocefin reporter substrate

[11] = test system: strains of Enterobacteriaceae producing various carbapenemases (class A, D and B; 104 strains); test: Antibiotics potentiation by Compound 27 (MIC; meropenem, doripenem, ertapenem, cefepime); format: cell-based; details: Compound 27 at a fixed concentration of 4 μg/ml
[12] = test system: strains of Enterobacteriaceae producing various carbapenemases (class A, D and B; 169 strains); test: Meropenem or tebipenem potentiation by Compounds 97 or 62 (MIC); format: cell-based; details: Compound 62 at a fixed concentration of 8 μg/ml
Experimental: The largest panel of clinical isolates expressing class A, D and B carbapenemases alone or in combination with other beta-lactamases (169 strains) was used to evaluate carbapenem potentiation activity of Compounds 97 and 62. MIC for meropenem and tebipenem of these strains were determined either alone or in the presence of Compounds 97 or 62, respectively, at a fixed concentration of 8 μg/ml in the growth media.

[13] = Serum stability of prodrugs: hydrolysis by human serum; format: in vitro ADME; details: prodrug; for Measured Initial Conc. in Serum: 37 degrees, sampled immediately
Experimental: (§1) Prodrug strategy is one of the ways to achieve or increase oral bioavailability for therapeutic drugs. Compound 62 was used as a template for various ester prodrugs. After a prodrug molecule is absorbed into systemic circulation, it should be hydrolyzed in the blood in order to release the active form. Hydrolysis of several prodrugs by rat and human serum were evaluated.
(§2) For all stability experiments the test compounds were treated with rat or human serum in Eppendorf tubes. Typically, 980 μl of serum was prewarmed at 37 degrees for 2 minutes and then 20 μl of a compound (at 1 mg/ml, 50×) was added to it to get a final concentration of 20 μg/ml and immediately mixed. Duplicate samples were tested. […] After vortexing for 30 seconds, the tube was centrifuged in a microcentrifuge for 10 minutes at 15K rpm. Next, 100 μl of the supernatant was combined with 600 μl of water and injected on LC-MS using 0.1% formic acid in water for mobile phase A and 0.1% formic acid in methanol for mobile phase B on an ACE 5 C18 2.1×100 mm column with a 10 μL it injection. The flow rate and gradient were adjusted as needed to give the desired resolution and run time. The pH of the mobile phase was adjusted if needed to improve the chromatography.
(§3) The time course of both the disappearance of a prodrug and the appearance of the active form of that prodrug is presented in Table 13 and Table 14. The active metabolites for all of the listed prodrugs are corresponding parent drugs

[14] = Serum stability of prodrugs: hydrolysis by rat serum; format: in vitro ADME; details: for Measured Initial Conc. in Serum / Conc. at t = 1 hr / Conc. at t = 3 hr: rat serum, prodrug; for Measured Initial Conc. in Serum: 37 degrees, sampled immediately
Experimental: as §1, §2, §3

[15] = target: T6, purified class A, C and D enzymes (UniProt Q48434); format: biochemical; details: read-out: Ki (CMY-2, NCF); purified CMY-2; nitrocefin reporter substrate
T6 construct: rows headed: Ki (CMY-2, NCF); other: purified CMY-2; nitrocefin reporter substrate

[16] = cleavage of biapenem (100 uM) by NDM-1, read-out: Ki, Biapenem
[17] = cleavage of imipenem (100 uM) by NDM-1, read-out: Ki, Imipenem
[18] = cleavage of meropenem (100 uM) by NDM-1, read-out: Ki, Meropenem
[19] = cleavage of tebipenem (100 uM) by NDM-1, read-out: Ki, Tebipenem
[20] = cleavage of biapenem by KPC-2, read-out: Ki, Biapenem
[21] = cleavage of doripenem by KPC-2, read-out: Ki, Doripenem
[22] = cleavage of imipenem by KPC-2, read-out: Ki, Imipenem
[23] = cleavage of meropenem by KPC-2, read-out: Ki, Meropenem
[24] = cleavage of tebipenem by KPC-2, read-out: Ki, Tebipenem
[25] = purified KPC-2, substrate biapenem, read-out: Ki KPC-2, Biapenem
[26] = cleavage of biapenem by OXA-48, read-out: Ki, Biapenem
[27] = cleavage of doripenem by OXA-48, read-out: Ki, Doripenem
[28] = cleavage of imipenem by OXA-48, read-out: Ki, Imipenem
[29] = cleavage of meropenem by OXA-48, read-out: Ki, Meropenem
[30] = cleavage of tebipenem by OXA-48, read-out: Ki, Tebipenem
[31] = purified OXA-48, substrate biapenem, read-out: Ki OXA-48, Biapenem

T1 sequence (C7C422 29-270, looked up, species assumed): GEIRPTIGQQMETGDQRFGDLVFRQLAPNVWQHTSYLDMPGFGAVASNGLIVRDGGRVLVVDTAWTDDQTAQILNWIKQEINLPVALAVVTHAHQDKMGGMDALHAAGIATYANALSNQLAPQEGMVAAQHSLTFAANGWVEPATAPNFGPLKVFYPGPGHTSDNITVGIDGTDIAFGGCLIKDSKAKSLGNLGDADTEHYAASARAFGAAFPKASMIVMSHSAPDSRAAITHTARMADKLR

Measured Initial Conc. in Serum [13]	Conc. at t = 1 hr [13]	Conc. at t = 3 hr [13]	Measured Initial Conc. in Serum [14]	Conc. at t = 1 hr [14]	Conc. at t = 3 hr [14]	SMILES	Ki [1, 16]	Ki [1, 17]	IC50 [2]	Ki [3, 20]	Ki [3, 21]	Ki [3, 22]	Ki [3, 23]	Ki [4, 26]	Ki [4, 27]	Ki [4, 28]	Ki [4, 29]	Ki [5]	Ki [9]	Ki [10]	also measured
						COc1ccc2c(c1C(=O)O)OB(O)[C@@H](Sc1nnc(N)s1)C2 [Compound 27, (R)-3-(5-amino-1,3,4-thiadiazol-2-ylthio)-2-hydroxy-7-methoxy-3,4-dihydro-2H-benzo[e][1,2]oxaborinine-8-carboxylic acid]	10 to 100 nM	10 to 100 nM	< 1000 nM	< 10 nM	< 10 nM	10 to 100 nM	< 10 nM	< 10 nM	< 10 nM	< 10 nM	< 10 nM	10 to 100 nM	< 100 nM	< 100 nM	Ki [1, 18]: < 10 nM; Ki [1, 19]: 10 to 100 nM; Ki [3, 24]: < 10 nM; Ki [3, 25]: 10 to 100 nM; Ki [4, 30]: < 10 nM; Ki [4, 31]: 10 to 100 nM; Ki (P99/AmpC of ECL, NCF) [6]: Y (0.1 μM to 1 μM); Ki (CTX-M-14, NCF) [7]: X (Less than 0.1 μM); Ki [8]: < 100 nM; antibiotics MIC (meropenem, doripenem, ertapenem, cefepime) [11]: significantly reduced
						CSc1ccc2c(c1C(=O)O)OB(O)[C@@H](Sc1nnc(N)s1)C2 [Compound 30, (R)-3-(5-amino-1,3,4-thiadiazol-2-ylthio)-2-hydroxy-7-(methylthio)-3,4-dihydro-2H-benzo[e][1,2]oxaborinine-8-carboxylic acid]	10 to 100 nM	10 to 100 nM	< 1000 nM	< 10 nM	< 10 nM	10 to 100 nM	< 10 nM	< 10 nM	< 10 nM	< 10 nM	< 10 nM	10 to 100 nM	< 100 nM	< 100 nM	Ki [1, 18]: < 10 nM; Ki [1, 19]: 10 to 100 nM; Ki [3, 24]: < 10 nM; Ki [3, 25]: 10 to 100 nM; Ki [4, 30]: < 10 nM; Ki [4, 31]: 10 to 100 nM; Ki (P99/AmpC of ECL, NCF) [6]: X (Less than 0.1 μM); Ki (CTX-M-14, NCF) [7]: X (Less than 0.1 μM); Ki [8]: < 100 nM
						COc1ccc2c(c1C(=O)O)OB(O)[C@@H](Sc1nncs1)C2 [Compound 62, (3R)-2-hydroxy-7-methoxy-3-(1,3,4-thiadiazol-2-ylsulfanyl)-3,4-dihydro-1,2-benzoxaborinine-8-carboxylic acid]	10 to 100 nM	> 100 nM	< 1000 nM	< 10 nM	< 10 nM	10 to 100 nM	< 10 nM	< 10 nM	< 10 nM	< 10 nM	< 10 nM	> 100 nM	< 100 nM	< 100 nM	Ki ([3]; purified KPC-2, substrate biapenem, numeric value, read-out: Ki KPC-2, Biapenem): 3.9 nM; Ki ([4]; purified OXA-48, substrate biapenem, numeric value, read-out: Ki OXA-48, Biapenem): 5.6 nM; Ki (P99/AmpC of ECL, NCF) [6]: Y (0.1 μM to 1 μM); Ki (CTX-M-14, NCF) [7]: X (Less than 0.1 μM); Ki [8]: < 100 nM; tebipenem MIC [12]: significantly reduced
51.4 µM	38.6 µM	24.8 µM	31.3 µM	40.7 µM	24.3 µM	COc1ccc2c(c1C(=O)OCOC(=O)C(C)C)OB(O)[C@@H](Sc1nncs1)C2 [Compound 121, 2-methylpropanoyloxymethyl (3R)-2-hydroxy-7-methoxy-3-(1,3,4-thiadiazol-2-ylsulfanyl)-3,4-dihydro-1,2-benzoxaborinine-8-carboxylate]															
44.3 µM	34.1 µM	47.1 µM	37.7 µM	26.6 µM	39.0 µM	COc1ccc2c(c1C(=O)OCOC(=O)OC(C)C)OB(O)[C@@H](Sc1nncs1)C2 [Compound 122, isopropoxycarbonyloxymethyl (3R)-2-hydroxy-7-methoxy-3-(1,3,4-thiadiazol-2-ylsulfanyl)-3,4-dihydro-1,2-benzoxaborinine-8-carboxylate]															
48.3 µM	38.3 µM	45.9 µM	44.9 µM	36.8 µM	41.2 µM	CCOC(=O)OCOC(=O)c1c(OC)ccc2c1OB(O)[C@@H](Sc1nncs1)C2 [Compound 124, ethoxycarbonyloxymethyl (3R)-2-hydroxy-7-methoxy-3-(1,3,4-thiadiazol-2-ylsulfanyl)-3,4-dihydro-1,2-benzoxaborinine-8-carboxylate]															
41.8 µM	27.4 µM	41.4 µM	37.6 µM	28.5 µM	48.2 µM	COc1ccc2c(c1C(=O)OCOC(=O)C(C)(C)C)OB(O)[C@@H](Sc1nncs1)C2 [Compound 125, 2,2-dimethylpropanoyloxymethyl (3R)-2-hydroxy-7-methoxy-3-(1,3,4-thiadiazol-2-ylsulfanyl)-3,4-dihydro-1,2-benzoxaborinine-8-carboxylate]															
						C[C@]1(Cn2ccnn2)[C@H](C(=O)O)N2C(=O)C[C@H]2S1(=O)=O [Tazobactam]													100 to 1000 nM	> 1000 nM	Ki [15]: 100 to 1000 nM

SMILES	Measured Initial Conc. in Serum [13]	Conc. at t = 1 hr [13]	Conc. at t = 3 hr [13]	Measured Initial Conc. in Serum [14]	Conc. at t = 1 hr [14]	Conc. at t = 3 hr [14]	Ki [1, 16]	Ki [1, 17]	IC50 [2]	Ki [3, 20]	Ki [3, 21]	Ki [3, 22]	Ki [3, 23]	Ki [4, 26]	Ki [4, 27]	Ki [4, 28]	Ki [4, 29]	Ki [5]	Ki [9]	Ki [10]	also measured
COc1ccc2c(c1C(=O)OCOC(C)=O)OB(O)[C@@H](Sc1nncs1)C2 [Compound 123, acetoxymethyl (3R)-2-hydroxy-7-methoxy-3-(1,3,4-thiadiazol-2-ylsulfanyl)-3,4-dihydro-1,2-benzoxaborinine-8-carboxylate]	51.7 µM	43.4 µM	30.7 µM	51.5 µM	26.1 µM	8.6 µM															conversion of prodrug to active metabolite ([14]; serum species not given, 4 hour experiment): completely converted to active metabolite
